According to patent US8153368B2, “Four-jointed box (FJX1) in cancer diagnosis and treatment” (Vanderbilt University, priority 2007, dated 2012):

Assays:
[1] = system: FJX1 mRNA in SW480 colon cancer cells; assay: qRT-PCR of FJX1 mRNA after γ-secretase inhibition in SW480 cells; assay type: cell-based, human; settings: 200 nM DAPT vs vehicle (DMSO), 16 hrs
Procedure: FIG. 3—Decreased FJX1 expression following inhibition of […] (DAPT) in SW480 colon cancer cells. Cells were grown to 70-80% confluence using complete RPMI and then treated with 200 nM of DAPT or vehicle. The RNA was harvested 16 hrs later using an RNeasy™ kit (Qiagen). qRT-PCR was performed as outlined in the text. Gene expression values were normalized to a housekeeping gene (PMM1) for the final analysis. The values are expressed as fold-change in comparison to normal colonic mucosal levels.
(§1) FIG. 19A-B—Inhibition of Notch signaling causes a reduction in fjx1 expression in colon cancer cells. Fjx1 expression levels as determined by qRT-PCR in (FIG. 19A) SW480 and (FIG. 19B) SW620 colon cancer cells following treatment with the γ-secretase inhibitor DAPT.
Since four-jointed in Drosophila is regulated by Notch signaling, and mouse fjx1 expression appears to be a target of Notch regulation, the inventors predicted that inhibition of Notch signaling would inhibit FJX1 expression in colon cancer cells. A reliable pharmacological method of inhibiting Notch signaling is to block release of the Notch intracellular domain through inhibition of γ-secretase activity (van Es et al., 2005). Therefore, the inventors used a selective inhibitor of γ-secretase, DAPT, or vehicle (DMSO) to treat SW480 and SW620 cells for 16 hrs and determined the effect on levels of FJX1. […]

[2] = system: FJX1 mRNA in SW620 colon cancer cells; assay: qRT-PCR of FJX1 mRNA after γ-secretase inhibition in SW620 cells; assay type: cell-based, human; settings: 200 nM DAPT vs vehicle (DMSO), 16 hrs
Excerpt: as §1
Since four-jointed in Drosophila is regulated by Notch signaling, and mouse fjx1 expression appears to be a target of Notch regulation, the inventors predicted that inhibition of Notch signaling would inhibit FJX1 expression in colon cancer cells. A reliable pharmacological method of inhibiting Notch signaling is to block release of the Notch intracellular domain through inhibition of γ-secretase activity (van Es et al., 2005). Therefore, the inventors used a selective inhibitor of γ-secretase, DAPT, or vehicle (DMSO) to treat SW480 and SW620 cells for 16 hrs and determined the effect on levels of FJX1.
(§2) FJX1 expression in colon cancer cells. In preliminary studies examining the role of fjx1 as it relates to Notch signaling in CRC, the inventors have assessed expression of fjx1 mRNA in several human colon cancer cell lines and found abundant expression of fjx1 in both SW480 and SW620 cells (in comparison with colon adenomas), and less abundant expression in HT29 cells as determined by qRT-PCR (data not shown). […]

Notch pathway [3] = assay: Notch-responsive reporter (4xCSL-Luc) in HEK293T cells; assay type: cell-based, human; settings: transient transfection, DAPT 200 nM or dnMAM
Procedure: FIGS. 18A-B—Experimental inactivation of Notch pathway signaling in HEK293 cells. Transient transfections of cells was carried out using a Notch promoter reporter plasmid (4xCSL) and a control reporter (pRL-tk). The Relative Light Units (4xCSL/pRL-tk) are plotted for each treatment group. (FIG. 18A) Notch activity in HEK293 cells following treatment with NICD, NICD+200 nM DAPT, LNG (negative control), LNG+200 nM DAPT and 200 nM DAPT. (FIG. 18B) Notch promoter activity in HEK293 cells following treatment with dnMAM, NICD, NICD+dnMAM, LNG and LNG+dnMAM.
as §2, with “shown). Since four-jointed in Drosophila is regulated by Notch signaling, and mouse fjx1 expression appears to be a target of Notch regulation, the inventors predicted that inhibition of Notch signaling would inhibit fjx1 expression in colon cancer cells. A reliable pharmacological method of inhibiting Notch signaling is to block release of the Notch intracellular domain through inhibition of γ-secretase activity (van Es, 2005).” for “shown).”

Notch pathway [4] = assay: Notch-responsive reporter (4xCSL-Luc) in SW480 cells; assay type: cell-based, human; settings: data not shown
Excerpt: FJX1 expression in colon cancer cells. In preliminary studies examining the role of fjx1 as it relates to Notch signaling in CRC, the inventors have assessed expression of fjx1 mRNA in several human colon cancer cell lines and found abundant expression of fjx1 in both SW480 and SW620 cells (in comparison with colon adenomas), and less abundant expression in HT29 cells as determined by qRT-PCR (data not shown). Since four-jointed in Drosophila is regulated by Notch signaling, and mouse fjx1 expression appears to be a target of Notch regulation, the inventors predicted that inhibition of Notch signaling would inhibit fjx1 expression in colon cancer cells. A reliable pharmacological method of inhibiting Notch signaling is to block release of the Notch intracellular domain through inhibition of γ-secretase activity (van Es, 2005). A complementary genetic method of Notch inhibition is through the use of a truncated, dominant negative construct of Mastermind or “dnMAM” (pCS2-Myc 1-30aa Mastermind a gift from K. A. Jones, Ph.D., the Salk Institute, La Jolla, Calif.) (Fryer, 2002). The dnMAM is mutated such that it cannot form a functional RBPJ complex and therefore, cannot activate the Notch responsive promoter. […] The inventors have also used DAPT treatments of SW480 and SW620 cells (200 nM for 16 hrs) to block expression of fjx1 in response to Notch signaling (FIG. 19).

FJX1 mRNA = assay: qRT-PCR of FJX1 expression in rectal cancer biopsies before and after celecoxib; assay type: in vivo, human; settings: range in the four of five rectal cancers that were down-regulated; pre vs post treatment

SMILES | levels of FJX1 mRNA [1] | levels of FJX1 mRNA [2] | Notch promoter reporter activity (4xCSL/pRL-tk relative light units) (Notch pathway [3]) | Notch promoter reporter activity (4xCSL-Luc) (Notch pathway [4]) | fjx1 mRNA decrease after Celecoxib treatment (qRT-PCR) (FJX1 mRNA)
C[C@H](NC(=O)Cc1cc(F)cc(F)c1)C(=O)N[C@H](C(=O)OC(C)(C)C)c1ccccc1 [DAPT] | reduced the levels of FJX1 mRNA | reduced the levels of FJX1 mRNA | specific Notch pathway inhibition | specific Notch pathway inhibition | –
Cc1ccc(-c2cc(C(F)(F)F)nn2-c2ccc(S(N)(=O)=O)cc2)cc1 [celecoxib] | – | – | – | – | 2.5-17.5 fold decrease
